In publication PMC9227918 (Toxins, 2022):

Experiments:
Type in all cases: in vitro ADME
[1] = Hepatic phase II metabolism (sulfation), human liver cytosol with PAPS; conditions: HPLC-QTOF-HRMS
[2] = Hepatic phase I metabolism, incubation with horse liver microsomes and NADPH-regenerating system; conditions: for identified pI metabolites: horse liver microsomes 5 mg/mL, 0.04 mg/mL PSD, 90 min, 37 °C, HPLC-Orbitrap-HRMS; for extent of pI transformation / metabolite formation: horse microsomes compared with human microsomes
[3] = Hepatic phase I metabolism, incubation with human liver microsomes and NADPH-regenerating system; conditions: for main pI metabolite: human liver microsomes 5 mg/mL, 0.04 mg/mL PSD, 90 min, 37 °C, HPLC-DAD-Orbitrap-HRMS
[4] = Hepatic phase II metabolism (sulfation), horse liver cytosol with PAPS; conditions: horse cytosol compared with human cytosol (Figure 7b)
[5] = Hepatic phase II metabolism (glucuronidation), human liver microsomes with UDPGA
[6] = Hepatic phase II metabolism (glucuronidation), horse liver microsomes with UDPGA; conditions: UDPGA 0.3 mM, 0.02 mg/mL PSD, 90 min, HPLC-Orbitrap-HRMS

Structure (SMILES) | identified pI metabolites [2] | main pI metabolite [3] | extent of pI transformation / metabolite formation [2] | further results
C[C@@H]1CC[C@H]2C(C)(C)[C@H](O)CC[C@]2(C)[C@@]12Cc1c(O)cc(CO)c(C=O)c1O2 [L-671, L-671,667] | L-671 [+O2–H2] could not be detected | – | – | abundance of sulfate signals among the PSDs [1]: most abundant sulfate signals; number of signals in the XIC of the sulfate (isomers) [1]: two signals; variation in potential pI metabolites ([3]; HPLC-Orbitrap-HRMS experiments, compared among the four PSDs): largest variation in potential pI metabolites; conversion in sulfation experiments [4]: Opposite observations
CC(=O)O[C@@H]1[C@H](OC(C)=O)C[C@@]2(C)[C@@H](CC[C@@H](C)[C@]23Cc2c(OC4O[C@H](C(=O)O)[C@@H](O)[C@H](O)[C@H]4O)cc(CO)c(C=O)c2O3)C1(C)C (stereo partly shown) [STBON D +GlcA] | – | – | – | glucuronide (+GlcA) formation ([5]; human microsomes, UDPGA 0.3 mM, 0.02 mg/mL PSD, 90 min, HPLC-Orbitrap-HRMS): identified; glucuronide (+GlcA) formation [6]: identified
CC(=O)O[C@@H]1[C@H](OC(C)=O)C[C@@]2(C)[C@@H](CC[C@@H](C)[C@]23Cc2c(O)cc(CO)c(C=O)c2O3)C1(C)C [STBON D, stachybonoid D] | only the metabolites STBON D [+O–H2] and STBON D [+O] were identified | oxidized metabolites ([+O]) | – | conversion in glucuronidation experiments ([5]; human microsomes compared with horse microsomes, 90 min (Figure 7a)): higher signals for STBON D +GlcA and lower signals of the respective parental compound
C[C@@H]1CC[C@H]2C(C)(C)[C@H](O)CC[C@]2(C)[C@@]12Cc1c(O)cc(C=O)c(C=O)c1O2 [STDIAL, stachybotrydial] | all but the desaturated metabolites were formed | STDIAL [+O–H4] | comparable to human microsomes | –
C[C@@H]1CC[C@H]2C(C)(C)[C@H](O)CC[C@]2(C)[C@@]12Cc1c(O)cc3c(c1O2)CNC3=O [STLAC, stachybotrylactam] | all but the desaturated metabolites were formed | oxidized metabolites ([+O]) | comparable to human microsomes | –
